Measured values reported in patent publication US20020040062A1, “Protein kinase C activators and their use in decreasing expression of cell antigens” (The Trustees of Columbia University, priority 1993, published 2002).
Where two headings read alike, the source gives them in different places. Marks after values point to notes of the source that are not given here.

B1: IFN-β: recombinant human fibroblast interferon with a serine substituted for a cysteine at position 17 (protein, UniProt P01574 22-187, looked up, variant C17S)
Interferon beta: MSYNLLGFLQRSSNFQSQKLLWQLNGRLEYCLKDRMNFDIPEEIKQLQQFQKEDAALTIYEMLQNIFAIFRQDSSSTGWNETIVENLLANVYHQINHLKTVLEEKLEKEDFTRGKLMSSLHLKRYYGRILHYLKAKEYSHCAWTIVRVEILRNFYFINRLTGYLRN
B2: IFN-γ: recombinant human immune interferon produced in Escherichia coli (protein, UniProt P01579 24-161, looked up)
Interferon gamma: QDPYVKEAENLKKYFNAGHSDVADNGTLFLGILKNWKEESDRKIMQSQIVSFYFKLFKNFKDDQSIQKSVETIKEDMNVKFFNSNKKKRDDFEKLTNYSVTDLNVQRKAIHELIQVMAELSPAAKTGKRKRSQMLFRG

Legend:
T47D cells = assay: T47D cell growth assay (Coulter Counter); type: cell-based, human; conditions: for effect on 72 hr growth: 0.1 μg/ml, FIG. 1
Experimental: FIG. 1: Effect of H-7, TPA, MEZ and ADMB on T47D cell growth and DNA synthesis. Cell growth assays are presented in (A). T47D cells were seeded at 1×10^4 cells/35 mm tissue culture plate, the medium was changed with the indicated compounds 24 hr later and cell numbers were determined after an additional 72 hr growth at 37° C. by Coulter Counter. Results are the average of triplicate samples/experimental condition which varied by ≦10%. DNA synthesis assays are presented in (B). T47 D cells were seeded at 1.25×10^4 cells in 0.2 ml of media in 96 microtiter plates. Every 24 hr, cultures received 1 μCi of methyl-^3H-thymidine and 8 hr later cells were harvested and TCA precipitable counts were determined. Results are the average from replicate samples exposed to the indicated compounds for 72 hr. Replicate samples varied by ≦10% and replicate studies varied by ≦15%. Further details can be found in “Detailed Description Of The Invention”.
T47D cells were seeded at 5×10^3 cells/ml in 35 mm tissue culture plates and 24 hr later the medium was changed with the indicated compounds. Seventy-two hr later the cells were resuspended in trysin/versene (0.125%/0.02%, w/w) and counted using a ZM Coulter Counter (Coulter Electronics). For ^3H-thymidine incorporation studies, T47D cells were seeded at 1.25×10^4 cells in 0.2 ml of media in 96 well microtiter plates. Every 24 hr, plates received 1 μCi of methyl-^3H-thymidine (specific activity […]) (ICN Radiochemicals, Irvine, Calif.), cells were harvested 8 hr after the addition of labeled thymidine and TCA precipitable counts were determined using a Packard scintillation counter. Replicate samples varied by ≦10% and replicate studies varied by ≦15%.

ICAM-1 = assay: FACS analysis of ICAM-1 surface expression in T47D cells; type: cell-based, human; conditions: 72 hr; for ICAM-1 level of upregulation versus untreated control cells (equivalent to 1.0): presence or absence of 0.1 μg/ml H-7; for ICAM-1 relative increase in expression versus untreated controls (equivalent to 1.0): presence or absence of 1.0 μg/ml H-7
Description: IgG1 murine monoclonal antibody Cu18 and Cu46 recognize two different epitopes of a highly restricted breast carcinoma associated glycoprotein of Mr 225,000 to 250,000 (BCA 225). This TAA is expressed intracytoplasmically and on the membrane of 94% of breast tumors tested and in the T47D human breast carcinoma cell line. BCA 225 is shed into the culture medium by T47D cells and into the sera of breast cancer patients. IgG2a monoclonal antibody L243 (anti HLA Class II-DR) recognizes a monomorphic HLA Class II-DR-α epitope (ATCC M355). Monoclonal antibody CL203.4 [40], which recognizes ICAM-I, was kindly provided by Dr. S. Ferrone, New York Medical College, NY. The c-erbB-2 monoclonal antibody which recognizes the extracellular domain of c-erbB-2 was obtained from Triton Biosciences, Inc., Alamedia, Calif. Monoclonal antibodies Cu18 and Cu46 were used at 0.05 μg/ml and monoclonal antibodies interacting with HLA Class II-DR, ICAM-1 and c-erbB-2 were used at 10 μg/ml. For each experiment, isotype matched control backgrounds (IgG for Cu18, Cu46 and ICAM-1, IgG2a for HLA Class Ii and IgG2b for c-erbB-2) were subtracted from the experimental results. Background from antimouse IgG FITC antibody was also subtracted from experimental results. Applicants never observed backgrounds higher than 2% of total cells for isotypic mouse IgG or higher than 5% for antimouse IgG FITC.
T47D cells treated with the various compounds were analyzed by flow cytometry using appropriate monoclonal antibody concentrations as described previously. Briefly, 1×10^5 cells were incubated with the test antibody for 30 min at 4° C., washed 3× with PBS and incubated with a goat a mouse F (ab)2 FITC conjugated test antibody at a 1:40 dilution for 30 min at 4° C. Cells were then washed 3× with PBS and analyzed on a FACStar (Beckon Dickinson, Mountain View, Calif.) or a Coulter Epics IV FACS (Coulter, Hialeah, Fla.). Results are expressed as mean fluorescence intensity (MFI) units which were determined as described previously. MFI=(mean channel fluorescence in fluorescence positive antibody-binding cells×% of fluorescence positive antibody-binding cells)−(mean channel fluorescence in unstained cells×% of fluorescence positive cells in the unstained population). All studies were performed a minimum of three or four times with duplicate samples in each experiment. Replicate samples within individual experiments varied by ≦10% and variation between experiments were generally ≦20%.

CA19.9 [1] = assay: FACS analysis of CA19.9 (MoAb B67.4) in CBS human colon carcinoma cells; type: cell-based; conditions: 96 hours
Experimental: (§1) Cells were plated in 10 cm plates, media was changed 24 hours later with no addition (control) or addition of the indicated compounds and cells were incubated at 37° C. for 96 hours. Cells were resuspended using 10× EDTA and antigen expression was determined as described (Leon, Mesa-Tejada, Gutierrez, Estabrook, Breiner, Schlom & Fisher: Anticancer Res. 9:1639-1648, 1989; Leon, Gutierrez, Jiang, Estabrook, Waxman & Fisher: Cancer Immuno. Immunother. 35:315-324 1992).

CA19.9 [2] = assay: FACS analysis of CA19.9 (MoAb B67.4) in WiDr human colon carcinoma cells; type: cell-based
Experimental: as §1, with “for the indicated time (72 or” for “for”, “hours).” for “hours.”, “Greiner,” for “Breiner,”, “Immunol. Immmunother. 35:315-324,” for “Immuno. Immunother. 35:315-324”

HLA-DR = assay: FACS analysis of HLA-DR (MoAb L243) in WiDr human colon carcinoma cells; type: cell-based
Experimental: as §1, with “for the indicated time (72 or” for “for”, “hours).” for “hours.”, “Greiner,” for “Breiner,”, “Immunol. Immmunother. 35:315-324,” for “Immuno. Immunother. 35:315-324”

[3] = 0.1 μg/ml TPA or MEZ, presence or absence of 0.1 μg/ml H-7, FACStar
[4] = 500 units/ml IFN-β or 50 units/ml IFN-γ
[5] = 500 units/ml IFN-β or 50 units/ml IFN-γ, presence or absence of 1.0 μg/ml H-7, Coulter Epics IV FACS
[6] = 72 Hour Treatment, MEZ 100 ng/ml, IFN-γ 100 U/ml
[7] = 96 Hour Treatment, MEZ 100 ng/ml, IFN-γ 100 U/ml
[8] = 72 Hour Treatment, ADMB 0.01 μg/ml
[9] = 72 Hour Treatment, ADMB 0.1 μg/ml
[10] = 72 Hour Treatment, ADMB 1.0 μg/ml
[11] = 96 Hour Treatment, ADMB 0.01 μg/ml
[12] = 96 Hour Treatment, ADMB 0.1 μg/ml
[13] = 96 Hour Treatment, ADMB 1.0 μg/ml

Molecule | effect on 72 hr growth (T47D cells; T47D cells) | ICAM-1 level of upregulation versus untreated control cells (equivalent to 1.0) (ICAM-1; 0.1 μg/ml TPA or MEZ) | Antigenic Expression (MFI) ICAM-1 (ICAM-1; [3]) | ICAM-1 relative increase in expression versus untreated controls (equivalent to 1.0) (ICAM-1; [4]) | Antigenic Expression (MFI) ICAM-1 (ICAM-1; [5]) | Monoclonal Antibody Binding (MFI) MoAb B67.4 (CA19.9) (CA19.9 [1]; MEZ 1100 ng/ml, IFN-γ 100 U/ml) | Monoclonal Antibody Binding (MFI) MoAb B67.4 (CA19.9) (CA19.9 [2]; [6]) | Monoclonal Antibody Binding (MFI) MoAb B67.4 (CA19.9) (CA19.9 [2]; [7]) | Monoclonal Antibody Binding (MFI) MoAb L243 (HLA-DR) (HLA-DR; [6]) | Monoclonal Antibody Binding (MFI) MoAb L243 (HLA-DR) (HLA-DR; [7]) | other results
CCCCCCCCCCCCCC(=O)O[C@@H]1[C@@H](C)[C@@]2(O)[C@@H](C=C(CO)C[C@]3(O)C(=O)C(C)=C[C@@H]23)[C@H]2C(C)(C)[C@]12OC(C)=O [TPA, 12-0-tetradecanoyl-phorbol-13-acetate] | suppressed to the greatest degree | (3.0) | 63,175 MFI | – | – | – | – | – | – | – | 72 hr growth suppression in combination with H-7 (T47D cells): No additive or synergistic effect
CC1CNCCN1S(=O)(=O)c1cccc2cnccc12.Cl.Cl (stereo not shown) [H-7, 1-(5-isoquinolinesulfonyl)-2-methylpiperazine dihydrochloride] | – | (1.0) | 21,538 MFI | 1.0 | 54,080 MFI | – | – | – | – | – | –
C=C(C)[C@@]12O[C@@]3(c4ccccc4)O[C@@H]1[C@@H]1[C@@H]4O[C@]4(CO)[C@@H](O)[C@]4(O)C(=O)C(C)=C[C@H]4[C@@]1(O3)[C@H](C)[C@H]2OC(=O)/C=C/C=C/c1ccccc1 [MEZ, mezerein] | only marginally altered | (4.1) | 85,745 MFI | – | – | 3288* MFI | 1914* MFI | 4784* MFI | 1120* MFI | 2129* MFI | 72 hr growth suppression in combination with H-7 (T47D cells; T47D cells, in combination with 0.1 μg/ml of H-7, data not shown): No additive or synergistic effect
CCCCCCCCCCN(C)c1cc(CO)cc(NC(C)=O)c1 [ADMB, 3-(N-acetylamino)-5-(N-decyl-N-methylamino)-benzyl alcohol] | only marginally altered | – | – | – | – | – | – | – | – | – | Monoclonal Antibody Binding (MFI) MoAb B67.4 (CA19.9) (CA19.9 [1]; ADMB 0.01 μg/ml): 3562* MFI; Monoclonal Antibody Binding (MFI) MoAb B67.4 (CA19.9) (CA19.9 [1]; ADMB 0.1 μg/ml): 3473* MFI; Monoclonal Antibody Binding (MFI) MoAb B67.4 (CA19.9) (CA19.9 [1]; ADMB 1.0 g/ml): 3962* MFI; Monoclonal Antibody Binding (MFI) MoAb B67.4 (CA19.9) (CA19.9 [2]; [8]): 1136 MFI; Monoclonal Antibody Binding (MFI) MoAb B67.4 (CA19.9) (CA19.9 [2]; [9]): 1172 MFI; Monoclonal Antibody Binding (MFI) MoAb B67.4 (CA19.9) (CA19.9 [2]; [10]): 1400* MFI; Monoclonal Antibody Binding (MFI) MoAb B67.4 (CA19.9) (CA19.9 [2]; [11]): 1512 MFI; Monoclonal Antibody Binding (MFI) MoAb B67.4 (CA19.9) (CA19.9 [2]; [12]): 2028* MFI; Monoclonal Antibody Binding (MFI) MoAb B67.4 (CA19.9) (CA19.9 [2]; [13]): 2417* MFI; Monoclonal Antibody Binding (MFI) MoAb L243 (HLA-DR) (HLA-DR; [8]): 390 MFI; Monoclonal Antibody Binding (MFI) MoAb L243 (HLA-DR) (HLA-DR; [9]): 317 MFI; Monoclonal Antibody Binding (MFI) MoAb L243 (HLA-DR) (HLA-DR; [10]): 486* MFI; Monoclonal Antibody Binding (MFI) MoAb L243 (HLA-DR) (HLA-DR; [11]): 434 MFI; Monoclonal Antibody Binding (MFI) MoAb L243 (HLA-DR) (HLA-DR; [12]): 615* MFI; Monoclonal Antibody Binding (MFI) MoAb L243 (HLA-DR) (HLA-DR; [13]): 806* MFI
B1 | – | – | – | 1.8 | 97,013 MFI | – | – | – | – | – | –
B2 | – | – | – | 3.5 | 191,490 MFI | 4970* MFI | 2271* MFI | 3191* MFI | 1724* MFI | 2376* MFI | activity in increasing Class II HLA-DR antigens relative to ADMB (HLA-DR): approximately 3 ×
